IC50 data for 24 molecules are collected here from patent US20200405697A1, “Antitumor Agent” (Taiho Pharmaceutical Co., Ltd, priority 2017, published 2020).

Broadly, the IC50 is the concentration that inhibits the measured activity by half.

This assay addresses T1, human RNR (histidine tagged human M1 and human M2 proteins) (Homo sapiens, UniProt P23921).
T1 construct: made in house; host or cells: Escherichia coli
T1 sequence (P23921 1-792): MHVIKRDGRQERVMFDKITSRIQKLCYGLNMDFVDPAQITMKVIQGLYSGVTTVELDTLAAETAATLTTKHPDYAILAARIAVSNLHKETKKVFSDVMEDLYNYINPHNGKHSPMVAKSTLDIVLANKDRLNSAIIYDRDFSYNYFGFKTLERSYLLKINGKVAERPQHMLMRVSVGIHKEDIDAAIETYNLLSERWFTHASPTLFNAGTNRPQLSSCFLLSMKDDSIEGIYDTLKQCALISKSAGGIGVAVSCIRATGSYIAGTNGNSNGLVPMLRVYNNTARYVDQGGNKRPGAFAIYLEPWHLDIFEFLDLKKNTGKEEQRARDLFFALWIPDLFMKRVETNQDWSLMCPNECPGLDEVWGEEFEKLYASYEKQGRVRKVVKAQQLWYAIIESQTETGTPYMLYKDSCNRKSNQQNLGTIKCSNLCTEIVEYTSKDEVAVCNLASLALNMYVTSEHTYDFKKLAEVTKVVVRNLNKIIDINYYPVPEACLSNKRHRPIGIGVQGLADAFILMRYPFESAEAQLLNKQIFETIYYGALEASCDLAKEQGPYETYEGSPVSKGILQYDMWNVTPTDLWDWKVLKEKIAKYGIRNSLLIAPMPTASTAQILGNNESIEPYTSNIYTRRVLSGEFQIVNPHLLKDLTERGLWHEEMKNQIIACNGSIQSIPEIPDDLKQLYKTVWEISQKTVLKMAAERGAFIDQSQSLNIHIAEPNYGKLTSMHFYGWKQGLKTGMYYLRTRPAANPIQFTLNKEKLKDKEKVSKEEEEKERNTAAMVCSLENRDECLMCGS
In words: Human RNR inhibition effect (dCDP formation from CDP). The conditions noted are these: 10 μM CDP, 37° C. for 30 minutes, read-out: RNR inhibitory activity IC50. It counts as biochemical. In a few lines: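 His-tagged human M1 (isoform 1) and N-terminal 59-aa-truncated M2 (isoform 2), E. coli-expressed, Ni-purified, preincubated 20 min with compound (1% DMSO). Reaction with 10 μM CDP, 2 mM ATP, 0.24 mM NADPH, 6 mM DTT, 4 mM Mg acetate, 100 mM KCl, 50 mM HEPES pH 7.2, 30 min at 37° C. dCDP formed quantified by reverse-phase HPLC after heat stop.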
Take `COC(=O)c1c(Cl)ccc(S(=O)(=O)N[C@H](c2n[nH]c(=S)o2)[C@H](C)c2cccc3c2CCC3)c1Cl` [Example 333, methyl 2,6-dichloro-3-(N-((1S,2R)-2-(2,3-dihydro-1H-inden-4-yl)-1-(5-thioxo-4,5-dihydro-1,3,4-oxadiazol-2-yl)propyl)sulfamoyl)benzoate]: the half-inhibitory concentration (IC50) worked out at 310 nM.

With `Cc1cccc([C@@H](C)[C@H](NS(=O)(=O)c2ccc(Cl)cc2C(N)=O)c2n[nH]c(=O)o2)c1C` [Example 3, 5-chloro-2-(N-((1S,2R)-2-(2,3-dimethylphenyl)-1-(5-oxo-4,5-dihydro-1,3,4-oxadiazol-2-yl)propyl)sulfamoyl)benzamide], the IC50 worked out at 300 nM.

For the molecule `Cc1c(F)ccc(F)c1[C@@H](C)[C@H](NS(=O)(=O)c1ccc(Cl)cc1C(N)=O)c1n[nH]c(=O)o1` [Example 28, 5-chloro-2-(N-((1S,2R)-2-(3,6-difluoro-2-methylphenyl)-1-(5-oxo-4,5-dihydro-1,3,4-oxadiazol-2-yl)propyl)sulfamoyl)benzamide], the IC50 stood at 500 nM.

Regarding `CC(=O)NC1CCOc2c(S(=O)(=O)N[C@H](c3n[nH]c(=O)o3)[C@H](C)c3c(F)ccc(C)c3C)ccc(Cl)c21` (stereo partly drawn) [Example 157, N-(5-chloro-8-(N-((1S,2R)-2-(6-fluoro-2,3-dimethylphenyl)-1-(5-oxo-4,5-dihydro-1,3,4-oxadiazol-2-yl)propyl)sulfamoyl)chroman-4-yl)acetamide], the IC50 is 100 nM.

In the case of `Cc1ccc(F)c([C@@H](C)[C@H](NS(=O)(=O)c2c(F)cc(Cl)cc2C(=O)O)c2n[nH]c(=O)o2)c1C` [Example 219, 5-chloro-3-fluoro-2-(N-((1S,2R)-2-(6-fluoro-2,3-dimethylphenyl)-1-(5-oxo-4,5-dihydro-1,3,4-oxadiazol-2-yl)propyl)sulfamoyl)benzoic acid], the 50% inhibitory concentration (IC50) was determined as 270 nM.

Take `Cc1ccc(F)c([C@@H](C)[C@H](NS(=O)(=O)c2ccc(F)c3c2OCCC3O)c2n[nH]c(=O)o2)c1C` (single isomer, unassigned) [Example 230B]: the IC50 worked out at 50 nM.

With `Cc1ccc(F)c([C@@H](C)[C@H](NS(=O)(=O)c2ccc(Cl)c(C(=O)N3CCC4(CC3)COC4)n2)c2n[nH]c(=O)o2)c1C` [Example 156, 5-chloro-N-((1S,2R)-2-(6-fluoro-2,3-dimethylphenyl)-1-(5-oxo-4,5-dihydro-1,3,4-oxadiazol-2-yl)propyl)-6-(2-oxa-7-azaspiro[3.5]nonane-7-carbonyl)pyridine-2-sulfonamide], the IC50 is 80 nM.

For `COc1ccc(-c2cc(S(=O)(=O)N[C@H](c3n[nH]c(=O)o3)[C@H](C)c3c(F)ccc(C)c3C)ccc2Cl)cc1` [Example 344, 6-chloro-N-((1S,2R)-2-(6-fluoro-2,3-dimethylphenyl)-1-(5-oxo-4,5-dihydro-1,3,4-oxadiazol-2-yl)propyl)-4′-methoxy-[1,1′-biphenyl]-3-sulfonamide], the IC50 worked out at 720 nM.

Consider `Cc1ccc(F)c([C@@H](C)[C@H](NS(=O)(=O)c2cc(C(=O)O)c(Cl)cc2C(N)=O)c2n[nH]c(=O)o2)c1C` [Example 38, 4-carbamoyl-2-chloro-5-(N-((1S,2R)-2-(6-fluoro-2,3-dimethylphenyl)-1-(5-oxo-4,5-dihydro-1,3,4-oxadiazol-2-yl)propyl)sulfamoyl)benzoic acid], for which the half-inhibitory concentration (IC50) amounted to 190 nM.

`Cc1ccc(F)c([C@@H](C)[C@H](NS(=O)(=O)c2c(F)cc(Cl)cc2F)c2n[nH]c(=O)o2)c1C` [Example 111, 4-chloro-2,6-difluoro-N-((1S,2R)-2-(6-fluoro-2,3-dimethylphenyl)-1-(5-oxo-4,5-dihydro-1,3,4-oxadiazol-2-yl)propyl)benzenesulfonamide]: the IC50 was 270 nM.

For `CCc1ccc(F)c([C@@H](C)[C@H](NS(=O)(=O)c2ccc(Cl)c3c2OCCC3O)c2n[nH]c(=O)o2)c1C` (single isomer, unassigned) [Example 239A], the half-maximal inhibitory concentration (IC50) came to 200 nM.

Take `CC(=O)OC1(C)CCOc2c(S(=O)(=O)N[C@H](c3n[nH]c(=O)o3)[C@H](C)c3c(F)ccc(Br)c3C)ccc(Cl)c21` (stereo partly drawn) [Example 167]: the IC50 was 80 nM.

With `CC(=O)Nc1cc(Cl)ccc1S(=O)(=O)N[C@H](c1n[nH]c(=O)o1)[C@H](C)c1c(F)ccc(C)c1C` [Example 274, N-(5-chloro-2-(N-((1S,2R)-2-(6-fluoro-2,3-dimethylphenyl)-1-(5-oxo-4,5-dihydro-1,3,4-oxadiazol-2-yl)propyl)sulfamoyl)phenyl)acetamide], the IC50 came to 440 nM.

With `[2H]C([2H])([2H])C1(OC(C)=O)CCOc2c(S(=O)(=O)N[C@H](c3n[nH]c(=O)o3)[C@H](C)c3c(F)ccc(C)c3C)ccc(Cl)c21` (stereo partly drawn) [Example 129, 5-Chloro-8-(N-((1S,2R)-2-(6-fluoro-2,3-dimethylphenyl)-1-(5-oxo-4,5-dihydro-1,3,4-oxadiazol-2-yl)propyl)sulfamoyl)-4-methyl-d3-chroman-4-yl Acetate], the IC50 is 100 nM.

For the molecule `COC(=O)c1cc(S(=O)(=O)N[C@H](c2n[nH]c(=S)o2)[C@H](C)c2cccc3c2CCC3)ccc1Cl` [Example 334, methyl 2-chloro-5-(N-((1S,2R)-2-(2,3-dihydro-1H-inden-4-yl)-1-(5-thioxo-4,5-dihydro-1,3,4-oxadiazol-2-yl)propyl)sulfamoyl)benzoate], the IC50 is 830 nM.

In the case of `COc1c(S(=O)(=O)N[C@H](c2n[nH]c(=O)o2)[C@H](C)c2c(F)ccc(C)c2C)ccc(Cl)c1C(C)O` (single isomer, unassigned) [Example 208B], the IC50 was 60 nM.

Turning to `Cc1ccc(F)c([C@@H](C)[C@H](NS(=O)(=O)c2ccc(C(F)(F)F)c3c2OCCC3O)c2n[nH]c(=O)o2)c1C` (single isomer, unassigned) [Example 244A], the half-maximal inhibitory concentration (IC50) turned out to be 90 nM.

For `Cc1ccc(F)c([C@@H](C)[C@H](NS(=O)(=O)c2ccc(Br)c(C#N)c2)c2n[nH]c(=O)o2)c1C` [Example 343, 4-bromo-3-cyano-N-((1S,2R)-(6-fluoro-2,3-dimethylphenyl)-1-(5-oxo-4,5-dihydro-1,3,4-oxadiazol-2-yl)propyl)benzenesulfonamide], the half-inhibitory concentration (IC50) turned out to be 640 nM.

For the molecule `C[C@H](c1cccc2c1CCC2)[C@H](NS(=O)(=O)c1ccc(Br)c(C(C)(C)O)c1)c1n[nH]c(=O)o1` [Example 188, 4-bromo-N-((1S,2R)-2-(2,3-dihydro-1H-inden-4-yl)-1-(5-oxo-4,5-dihydro-1,3,4-oxadiazol-2-yl)propyl)-3-(2-hydroxypropan-2-yl)benzenesulfonamide], the IC50 turned out to be 640 nM.

In the case of `Cc1ccc(F)c([C@@H](C)[C@H](NS(=O)(=O)c2cc(C(C)(C)O)ccc2C(N)=O)c2n[nH]c(=O)o2)c1C` [Example 197, 2-(N-((1S,2R)-2-(6-fluoro-2,3-dimethylphenyl)-1-(5-oxo-4,5-dihydro-1,3,4-oxadiazol-2-yl)propyl)sulfamoyl)-4-(2-hydroxypropan-2-yl)benzamide], the IC50 was 60 nM.

As for `Cc1ccc(F)c([C@@H](C)[C@H](NS(=O)(=O)c2ccc(Cl)c(C#N)n2)c2n[nH]c(=O)o2)c1C` [Example 105, 5-chloro-6-cyano-N-((1S,2R)-2-(6-fluoro-2,3-dimethylphenyl)-1-(5-oxo-4,5-dihydro-1,3,4-oxadiazol-2-yl)propyl)pyridine-2-sulfonamide], the IC50 amounted to 160 nM.

For `Cc1ccc(F)c([C@@H](C)[C@@H](c2n[nH]c(=O)o2)N(C)S(=O)(=O)c2ccc(Cl)cc2C(N)=O)c1C` [Example 337, 5-chloro-2-(N-((1S,2R)-2-(6-fluoro-2,3-dimethylphenyl)-1-(5-oxo-4,5-dihydro-1,3,4 oxadiazol-2-yl)propyl)-N-methylsulfamoyl)benzamide], the IC50 was 80 nM.

On to `Cc1ccc(F)c([C@@H](C)[C@H](NS(=O)(=O)c2ccc(Cl)cc2N)c2n[nH]c(=O)o2)c1C` [Example 271, 2-amino-4-chloro-N-((1S,2R)-2-(6-fluoro-2,3-dimethylphenyl)-1-(5-oxo-4,5-dihydro-1,3,4-oxadiazol-2-yl)propyl)benzenesulfonamide], for which the IC50 was determined as 230 nM.

`COc1c(S(=O)(=O)N[C@H](c2n[nH]c(=O)o2)[C@H](C)c2c(F)ccc(C)c2C)ncc(Cl)c1C(C)O` (stereo partly drawn) [Example 216, 5-chloro-N-((1S,2R)-2-(6-fluoro-2,3-dimethylphenyl)-1-(5-oxo-4,5-dihydro-1,3,4-oxadiazol-2-yl)propyl)-4-(1-hydroxyethyl)-3-methoxypyridine-2-sulfonamide]: the IC50 was 200 nM.
